Reference: patent US4416885A, “Use of isopropylaminopyrimidine in the chemotherapy of muscular dystrophy, myopathy and myotonia” (priority 1982, dated 1983)

Key:
[1] = tested on: pectoral muscle fibre of dystrophic chickens; test: Histopathology of pectoral muscle; assay type: in vivo, chicken; conditions: for % Fibre Splitting / % Phagocytosis / Hypertrophy Factor / Mean Endomysial Area / Nuclei/Fibre / Peripheral Nuclei (% of Total) / Range (endomysial area) / Variability Coefficient: 30 days
Text: Muscle fibre area increase greatly in the dystrophic chicken as does the range of fibre area sizes. Nuclei become displaced peripherally and both features can be measured quantitatively and compared with normal controls.
The main difference between 4-week (FIG. 1A) and 7-week old (FIG. 2A) normal muscle from pectoral biopsies, at the light microscopic level, is with regard to myofibre growth. There is an increase in fibre area and a redistribution of the position and number of muscle nuclei. The latter change from a random distribution in the fibre in the 4-week bird to a central location in the 7-week bird of about 80% of the nuclei. The fibres are closely packed, with very little connective tissue present and every fibre is clearly polygonal in shape.
In contrast, dystrophic pectoral muscle has very few fibres which appear normal at 4 weeks of age. They are nearly all rounded in shape (as opposed to polygonal) and many are hypertrophic. Longitudinal fibre splitting occurs and the muscle nuclei lie preferentially against the sarcolemma (FIG. 1B). There is a large increase in perimysial connective tissue. By 7 weeks, massive hypertrophy occurs (FIG. 2B). Fibre splitting leads to hyperplasia. […] Pyknotic nuclei appear, and the muscle nuclei are randomly scattered throughout the fibre. Connective tissue often appears very dense. Some fibres are starting to atrophy and fatty tissue replacement can sometimes be seen at this stage.

dystrophic chickens 413 [2] = test: Experiment 4, flip test (25 flips), dystrophic chickens; assay type: in vivo, chicken
Procedure: (§1) All chickens were injected with 50 mg/Kg IAPP and weighed approximately every second or third day.
(§2) B, C, D: Experimental-injected with 50 mg/Kg IAPP

[3] = tested on: normal 412 muscle explants; test: Microtubule complexes in muscle explants of injected normal chickens; assay type: in vivo, chicken
Text: Essentially, these experiments were divided into three subgroups, taken from the previous Table:
413A, 413B, 412A, 412B: All were sacrificed after 4 injections and muscle explants placed in culture.
413C, 412C: All were sacrificed after 8 injections and muscle explants were placed in culture.
413D, 412D: All were sacrificed after 10 injections and muscle explants placed in culture.
All explants were placed in CMRL culture medium containing 5% horse serum, 15% fetal bovine serum and 1% antibiotics and allowed to grow for 5-7 days before being fixed and observed for the presence or absence of microtubules. No IAPP was added to the culture medium during the 5-7 days in culture.

[4] = tested on: 413 dystrophic skeletal explants; test: Effect on dystrophic skeletal explants in cell culture (microtubules); assay type: cell-based, chicken; conditions: upon incubation in IAPP, 0.5 mg/ml; skeletal and cardiac explants
Procedure: In these experiments 2-week and 3-week normal and dystrophic chickens (that had no previous injections with IAPP) were sacrificed and skeletal and cardiac explants were placed in culture with 0.5 mg/ml IAPP added. The pooled results of these experiments are as follows: […]

Carrier monocytes = test: Effect on human monocytes in culture (flat cells), carrier; assay type: cell-based; conditions: carrier monocytes + IAPP, six individuals, cultured 5-7 days; without IAPP 35.3%; preliminary
Text: In the experiments adding IAPP to such cultures, the preliminary results were as follows: […]

dystrophic chickens 413 [5] = test: Experiment 4, weight of dystrophic chickens injected with IAPP; assay type: in vivo, chicken; conditions: for Weight: 50 mg/Kg
Procedure: as §1
A: Control-injected with PBS
as §2

CC(C)Nc1ncccn1.O=P(O)(O)O [IAPP, 2-isopropylaminopyrimidine orthophosphate]
% Fibre Splitting ([1]; 150 mg): 3.0% | % Phagocytosis ([1]; 150 mg): 0.0% | Hypertrophy Factor ([1]; 150 mg): 125 | Mean Endomysial Area ([1]; 150 mg): 1025 μm^2 | Nuclei/Fibre ([1]; 150 mg): 2.5 | Peripheral Nuclei (% of Total) ([1]; 150 mg): 46.1 % of Total | Range (endomysial area) ([1]; 150 mg): 82-2001 μm^2 | Variability Coefficient ([1]; 150 mg): 416 | Fibres still polygonal ([1]; 150 mg/Kg daily, 7 week old biopsy): 50% | % Fibre Splitting ([1]; 200 mg): 8.4% | % Phagocytosis ([1]; 200 mg): 1.6% | Hypertrophy Factor ([1]; 200 mg): 460 | Mean Endomysial Area ([1]; 200 mg): 763 μm^2 | Nuclei/Fibre ([1]; 200 mg): 2.5 | Peripheral Nuclei (% of Total) ([1]; 200 mg): 59.1 % of Total | Range (endomysial area) ([1]; 200 mg): 54-2554 μm^2 | Variability Coefficient ([1]; 200 mg): 709 | % Fibre Splitting ([1]; 300 mg (3× wk.)): 3.0% | % Phagocytosis ([1]; 300 mg (3× wk.)): 0.0% | Hypertrophy Factor ([1]; 300 mg (3× wk.)): 10 | Mean Endomysial Area ([1]; 300 mg (3× wk.)): 449 μm^2 | Nuclei/Fibre ([1]; 300 mg (3× wk.)): 1.3 | Peripheral Nuclei (% of Total) ([1]; 300 mg (3× wk.)): 40.9 % of Total | Range (endomysial area) ([1]; 300 mg (3× wk.)): 51-1060 μm^2 | Variability Coefficient ([1]; 300 mg (3× wk.)): 518 | % Fibre Splitting ([1]; 300 mg): 10.3% | % Phagocytosis ([1]; 300 mg): 0.3% | Hypertrophy Factor ([1]; 300 mg): 100 | Mean Endomysial Area ([1]; 300 mg): 552 μm^2 | Nuclei/Fibre ([1]; 300 mg): 1.7 | Peripheral Nuclei (% of Total) ([1]; 300 mg): 42.1 % of Total | Range (endomysial area) ([1]; 300 mg): 24-1226 μm^2 | Variability Coefficient ([1]; 300 mg): 580 | Muscle appearance vs normal muscle ([1]; 300 mg/Kg 3 times/week at 30 days): indistinguishable from normal muscle | Dosage at which histological parameters most closely approximate normal values ([1]; i.p.): 300 mg/Kg | Muscle morphology ([1]; oral 1 g/Kg daily for 35 days): marked improvements in the muscle morphology | Number of flips at which animal fatigued (dystrophic chickens 413 [2]; 413D experimental animal, day 25, 50 mg/Kg): 19 flips | Flip test outcome (dystrophic chickens 413 [2]; dystrophic drug injected chickens, 50 mg/Kg): able to pass the flip test | % Full Complexes Microtubules ([3]; 412B, Subgroup A, after 4 injections of 50 mg/Kg, 412A control 86%): 73% | % Full Complexes Microtubules ([3]; 412C, Subgroup B, after 8 injections of 50 mg/Kg): 76% | % Full Complexes Microtubules ([3]; 412D, Subgroup C, after 10 injections of 50 mg/Kg): 80% | Staining of microtubules in dystrophic cells in culture [4]: appears to normalize upon incubation in IAPP | % Flat Cells (Carrier monocytes): 50.0% | Toxic side effect (dystrophic chickens 413 [5]; Exp. 4, 50 mg/Kg injected, normal and dystrophic chickens): There did not appear to be a toxic side effect | Weight (dystrophic chickens 413 [5]; Exp. 4, 413B, day 1): 48.3 GRAMS | Weight (dystrophic chickens 413 [5]; Exp. 4, 413B, day 4): 51.2 GRAMS | Weight (dystrophic chickens 413 [5]; Exp. 4, 413B, day 7): 56.7 GRAMS | Weight (dystrophic chickens 413 [5]; Exp. 4, 413B, day 9): 58.1 GRAMS | Weight (dystrophic chickens 413 [5]; Exp. 4, 413C, day 1): 36.9 GRAMS | Weight (dystrophic chickens 413 [5]; Exp. 4, 413C, day 4): 44.4 GRAMS | Weight (dystrophic chickens 413 [5]; Exp. 4, 413C, day 7): 49.9 GRAMS | Weight (dystrophic chickens 413 [5]; Exp. 4, 413C, day 9): 45.2 GRAMS | Weight (dystrophic chickens 413 [5]; Exp. 4, 413C, day 11): 53.2 GRAMS | Weight (dystrophic chickens 413 [5]; Exp. 4, 413C, day 14): 77.4 GRAMS | Weight (dystrophic chickens 413 [5]; Exp. 4, 413C, day 16): 90.5 GRAMS | Weight (dystrophic chickens 413 [5]; Exp. 4, 413C, day 17): 104.8 GRAMS | Weight (dystrophic chickens 413 [5]; Exp. 4, 413D, day 1): 44.5 GRAMS | Weight (dystrophic chickens 413 [5]; Exp. 4, 413D, day 4): 51.2 GRAMS | Weight (dystrophic chickens 413 [5]; Exp. 4, 413D, day 7): 59.8 GRAMS | Weight (dystrophic chickens 413 [5]; Exp. 4, 413D, day 9): 56.5 GRAMS | Weight (dystrophic chickens 413 [5]; Exp. 4, 413D, day 11): 65.4 GRAMS | Weight (dystrophic chickens 413 [5]; Exp. 4, 413D, day 14): 93.7 GRAMS | Weight (dystrophic chickens 413 [5]; Exp. 4, 413D, day 16): 115.1 GRAMS | Weight (dystrophic chickens 413 [5]; Exp. 4, 413D, day 20): 161.3 GRAMS | Weight (dystrophic chickens 413 [5]; Exp. 4, 413D, day 22): 210.2 GRAMS | Weight (dystrophic chickens 413 [5]; Exp. 4, 413D, day 25): 240.7 GRAMS
